The values below come from US11052151B2, “Diagnosis and treatment of autism spectrum disorder” (California Institute of Technology, priority 2012, dated 2021).

Data set [1] has as its system naïve wild-type mice. Put plainly: 4EPS sufficiency experiment: open field exploration. The data set is classed as in vivo. The method, then: The open field test is widely used to measure anxiety-like and locomotor behavior in rodents. Mice were placed in 50×50 cm white Plexiglas boxes for 10 minutes. An overhead video camera recorded the session, and Ethovision software (Noldus) was used to analyze the distance traveled, and the number of entries and duration of time spent in the center arena (central 17 cm square).
(§1) Wildtype mice were injected i.p. with saline or 30 mg/kg 4EPS potassium salt daily from 3 to 6 weeks of age. A dose-response curve was generated by measuring serum 4EPS levels at various times after i.p. injection of 30 mg/kg 4EPS (FIG. 15C). Mice were behaviorally tested as described above from 6 to 9 weeks of age.

Data set [2] deals with naïve wild-type mice. The experiment in a line: 4EPS sufficiency experiment: pre-pulse inhibition and startle. It is filed as in vivo. As to conditions: 30 mg/kg i.p. daily. As for the experimental part:
PPI tests are used as a measure of sensorimotor gating and were conducted and analyzed according to the procedure described in Geyer and Swerdlow, 2001 and Smith et al., 2007. Briefly, mice were acclimated to the testing chambers of the SR-LAB startle response system (San Diego Instruments) for 5 minutes, presented with six 120 db pulses of white noise (startle stimulus) and then subjected to 14 randomized blocks of either no startle, startle stimulus only, 5 db prepulse with startle or 15 db prepulse with startle. The startle response was recorded by a piezo-electric sensor, and the percent PPI is defined as: [((startle stimulus only—5 or 15 db prepulse with startle)/startle stimulus only)*100].
as §1

The subject of data set [3] is naïve wild-type mice. The experiment in a line: 4EPS sufficiency experiment: marble burying. The data set is classed as in vivo. As to conditions: 4EPS-treated versus saline-treated mice. As for the experimental part:
Marble burying is an elicited repetitive behavior in rodents analogous to those observed in autistic individuals (Silverman et al., 2010b). This test was conducted and analyzed according to methods described in Thomas et al., 2009 and Malkova et al., 2012. Mice were habituated for 10 minutes to a novel testing cage containing a 4 cm layer of chipped cedar wood bedding and then transferred to a new housing cage. 18 glass marbles (15 mm diameter) were aligned equidistantly 6×3 in the testing cage. Mice were returned to the testing cage and the number of marbles buried in 10 minutes was recorded.
as §1

The test system of data set [4] is naïve wild-type mice. The experiment in a line: 4EPS sufficiency experiment: ultrasonic vocalizations. It is filed as in vivo. As to conditions: 4EPS-treated versus saline-treated mice. The method, then: Male mice produce USVs in response to female mice as an important form of communication (Portfors, 2007). Adult male USV production in response to novel female exposure was measured according to methods described in Grimsley et al., 2011; Scattoni et al., 2011; and Silverman et al., 2010a. Adult males were single-housed one week before testing and exposed for 20 minutes to an unfamiliar adult female mouse each day starting four days prior to testing in order to provide a standardized history of sexual experience and to adjust for differences in social dominance. On testing day, mice were habituated to a novel cage for 10 minutes before exposure to a novel age-matched female. USVs were recorded for 3 minutes using the UltraSoundGate microphone and audio system (Avisoft Bioacoustics). Recordings were analyzed using Avisoft's SASLab Pro software after fast Fourier transformation at 512 FFT-length and detection by a threshold-based algorithm with 5 ms hold time. Data presented reflect duration and number of calls produced in the 3 minute session.
as §1

The nature of data set [5]: 4EPS sufficiency experiment: body weight. It is filed as in vivo. As to conditions: 4EPS- versus control-treated mice. As for the experimental part: as §1
Data set [6] in a line: Serum 4EPS after i.p. injection. It is filed as in vivo. As to conditions: single i.p. injection of 30 mg/kg potassium 4EPS, adult wild-type mice. The method, then: Authentic 4EPS and serum samples were analyzed by LC/MS using an Agilent […] HPLC system equipped with a photodiode array detector and interfaced to a model G1946C single quadrupole […] mass spectrometer. HPLC separations were obtained at 25° C. using an Agilent Zorbax XDB-C18 column (4.6 mm×50 mm×5 um particle size). The 4EPS ion was detected using selected ion monitoring for ions of m/z 200.9 and dwell time of 580 ms/ion, with the electrospray capillary set at 3 kV. […] For quantification of 4EPS in mouse sera, a dose-response curve was constructed by plotting the total ion count peak area for known concentrations of authentic potassium 4EPS against the analyte concentration (R^2=0.9998; FIG. 15B). Mouse serum samples were diluted four-fold with acetonitrile and centrifuged at 10,000 g at 4° C. for 3 minutes. 10 ul of supernatant was injected directly into the HPLC system.
as §1

A further data set deals with ASD individuals. As to conditions: cited from earlier work.
Another data set concerns CNTNAP2 knockout mice. As to conditions: cited from earlier work.
The test system of data set [7] is claudin 8 and claudin 15. The experiment in a line: IL-6 oral gavage, colon claudin expression. Also noted: species or system mice. As to conditions: in vivo. As for the experimental part:
(§2) For in vivo assays, adult mice were gavaged with 5 ug carrier-free recombinant mouse IL-6 (eBioscience) in 1.5% sodium bicarbonate. At 4 hours post-gavage, 1 cm regions of distal, medial and proximal colon were dissected, washed in HBSS and processed for qRT-PCR, as described above. For in vitro assays, adult mice were sacrificed and 1 cm regions of distal, medial and proximal colon were dissected, washed and bisected for colon culture with 0-80 ng/ml IL-6 in complete RPMI media. After 4 hours of culture, colon pieces were harvested and processed for qRT-PCR, as described above.

In data set [8] the test system is claudin 8 and claudin 15. The experiment in a line: In vitro colon culture with IL-6, claudin expression. As to conditions: in vitro colon organ cultures. It is filed as cell-based, mice. As for the experimental part:
as §2

[9] abbreviates: 30 mg/kg i.p. daily, relative to vehicle-treated controls.

With `CCc1ccc(OS(=O)(=O)[O-])cc1.[K+]` [4-ethylphenylsulfate], the anxiety-like behavior result with naïve wild-type mice [1] (30 mg/kg i.p. daily from 3 to 6 weeks of age) is on record as “sufficient to induce anxiety-like behavior”. In the data set with naïve wild-type mice [1] (setting [9]), the “distance traveled in the open field” value was “comparable distances” and the “time in the center arena” value was “less time”. In the data set on naïve wild-type mice [1] (30 mg/kg i.p. daily, versus vehicle-treated mice), the “number of entries into the center of the field” value is “no difference”. Also, the PPI result with naïve wild-type mice [2] (5 db or 15 db pre-pulse) was “no significant alterations”. The “intensity of startle in response to the unconditioned primary stimulus” value in the data set with naïve wild-type mice [2] (120 db pulse) is listed as “increased intensity of startle”. Moreover, in the data set on naïve wild-type mice [3], the marble burying entry was “no significant differences”. The USV behavior entry in the data set with naïve wild-type mice [4] is given as “no significant differences”. Also, the weight entry in data set [5] is on record as “no difference”. In addition, the “serum 4EPS” value in [6] is reported as “Time-dependent increases”.

As for `Cc1nc2n(c(=O)c1CCN1CCC(c3noc4cc(F)ccc34)CC1)CCCC2` [risperidone], the social behavior entry in the data set on ASD individuals and in the data set on CNTNAP2 knockout mice was “inability to improve social behavior” in each case.

B1: recombinant IL-6: carrier-free recombinant mouse IL-6 (eBioscience) (protein, UniProt P08505 25-211, looked up)
Interleukin-6: FPTSQVRRGDFTEDTTPNRPVYTTSQVGGLITHVLWEIVEMRKELCNGNSDCMNNDDALAENNLKLPEIQRNDGCYQTGYNQEICLLKISSGLLEYHSYLEYMKNNLKDNKKDKARVLQRDTETLIHIFNQEVKDLHKIVLPTPISNALLTDKLESQKEWLRTKTIQFILKSLEEFLKVTLRSTRQT
For B1, the “colon levels of claudin 8 and claudin 15” value in the data set with claudin 8 and claudin 15 [7] is listed as “can modulate”; in the data set on claudin 8 and claudin 15 [8] it was “can modulate”.
